Data: article PMC10552892, “Ebselen oxide and derivatives are new allosteric HER2 inhibitors for HER2‐positive cancers” (Molecular Oncology, 2023)
Like-named read-outs stand apart in the source and are kept apart here.

Assays:
[1] = biological target: T1, HER2 (pY1248) in MDA-MB-231 (Homo sapiens, UniProt P04626); assay: HER2 activation in MDA-MB-231 cells, western/dot blot; type: cell-based; conditions: MDA-MB-231, low HER2 expression
T1 construct: host or cells: MDA-MB-231

BT474 [2] = assay: Soft agar anchorage-independent growth, BT474; type: cell-based, human; conditions: 10 μM
Procedure: (§1) A bottom layer of 0.8% agarose in DMEM supplemented with 20% FBS and penicillin/streptomycin was added to 24‐well plates before seeding 25.10^3 cells per well in a 0.6% agarose top layer. Cells were treated with a vehicle or with 10 μM ebselen oxide or derivatives. Treatments were renewed 3 times a week. After 6 weeks, colonies were visualized with a phase‐contrast microscope and their number and size were quantified using IMAGEJ software.
(§2) Fig. 2 Ebselen oxide inhibits HER2 activation, cell proliferation, and anchorage‐independent growth of HER2^+ breast cancer cells. […] Blot and quantification of a representative experiment are shown out of 4 (A), 5 (B), or 2 (C) independent experiments. (D–F) Proliferation curves of HER2‐positive (SKBR3, D or BT474, E) or HER2‐negative (MDA‐MB‐231, F) breast cancer cell lines treated with vehicle or 10 μM ebselen oxide assessed by MTT assay. […] (G–I) Anchorage‐independent growth of SKBR3 (G), BT474 (H), or MDA‐MB‐231 (I) cells treated with vehicle or 10 μM ebselen oxide. […] Scale bars are […].

HER2 (pY1248) in SKBR3 = biological target: T2, HER2 (pY1248) in SKBR3 (Homo sapiens, UniProt P04626); assay: HER2 activation (pY1248-HER2) in SKBR3 cells, western/dot blot; type: cell-based; set-up: Inhibition of HER2 activation / HER2 inhibition, %: concentration or dose not given beside the values
T2 construct: host or cells: SKBR3

p95HER2 = p95HER2 (Homo sapiens, UniProt P04626); assay: Activation of gD-tagged p95HER2 in HBMECs, western blot; conditions: 5–10 μM, 24 h
Procedure: (§3) Cells were washed with cold PBS and lysed in a buffer containing 1% Triton, 50 mM Tris–HCl pH 8.8, 25 mM NaCl, 1 mM EDTA, 1 mM Na3VO4, 1 mM AEBSF, 10 μg·mL^−1 each of aprotinin/leupeptin/pepstatin or lysed in Laemmli buffer. Proteins were separated by SDS/PAGE and transferred to nitrocellulose (Schleicher & Schuell, Keene, NH, USA). Membranes were blocked for 1 h in TBS/0.1% Tween20/3% BSA and probed overnight with indicated antibodies. Peroxidase‐coupled secondary antibodies were used to reveal antibody binding using the ECL substrate (Pierce, Thermo Fisher Scientific, Waltham, MA, USA) and Fusion FX (Vilber Lourmat, Collégien, France) chemoluminescence acquisition system. Quantifications were done with IMAGEJ software (1.53e) (NIH, USA).
Vector encoding wild‐type glycoprotein D‐tagged form of HER2 (gD‐HER2‐WT) [18] was a kind gift of Dr M. Sliwkowski (Genentech, San Francisco, CA, USA). […] Vector encoding the HER2p95 [19] was provided by Dr J. Baselga.
(A–C) Lysates were then analyzed by western blot using antibodies against pY1248 HER2 and HER2. Representative blot and data quantification (mean ± SEM) are shown out of 3 (A), 3 (B), or 4 (C) independent experiments. One‐way ANOVA followed by Dunnett's multiple comparison test, *P < 0.05, **P < 0.01, ***P < 0.001.

gD-HER2-EBM* = assay: Western blot of HBMECs overexpressing ERM-binding-motif mutant gD-HER2-EBM*; conditions: 5 μM, 24 h, HBMEC
Procedure: as §3
(G, H) Lysates from HBMECs transfected with vectors encoding gD‐tagged wild‐type HER2 (gD‐HER2‐WT) (G) or the mutant generated with alanine and glycine substitutions within the ERM‐binding motif (gD‐HER2‐EBM*) (H) and treated or not during 24 h with 5 μM ebselen oxide were analyzed by western blot using antibodies against activated HER2 (pY1248), HER2, activated ERK (pERK), and ERK. Representative blots and quantification of data are shown where data are mean ± sem [n = 3 (G); n = 2 (H)].

SKBR3 [3] = assay: MTT proliferation assay, SKBR3; type: cell-based, human; conditions: 10 μM
Procedure: as §2

MDA-MB-231 [4] = assay: MTT proliferation assay, MDA-MB-231; type: cell-based, human; conditions: 10 μM
Procedure: as §2

SKBR3 [5] = assay: Soft agar anchorage-independent growth, SKBR3; type: cell-based, human; conditions: 10 μM
Procedure: as §1, §2

HER2 (pY1248) in NCI-N87 = biological target: T3, HER2 (pY1248) in NCI-N87 (Homo sapiens, UniProt P04626); assay: HER2 activation in NCI-N87 gastric cancer cells, western blot; type: cell-based
T3 construct: host or cells: NCI-N87
Procedure: (A-C) HER2-positive […] (SKBR3, A; NCI-N87, B; BT474, C) treated or not with Ebselen
indicated, were analyzed by western blot to evaluate HER2 activation status using antibodies directed
Proliferation was assessed by Incucyte during 4 days.

[6] = tested on: HBMECs overexpressing p95 HER2; assay: Proliferation of HBMECs overexpressing p95 HER2 (Incucyte); conditions: 5 μM, Incucyte 5 days
Procedure: (§4) 25.10^3 cells/96‐well transfected HBMECs or 9.10^3 cancer cells were seeded and monitored with an Incucyte S3 imaging system (Sartorius, Goettingen, Germany) using 10× objective every 2 h during 5 days. Confluency analyses were performed using the dedicated Incucyte analysis system.
(§5) (D–F) Proliferation was assessed by Incucyte during 5 days. Data are mean ± SEM of a representative experiment out of two independent experiments. Two‐way ANOVA followed by Bonferroni's multiple comparison test, ***P < 0.001, ****P < 0.0001.
(§6) (A-B) HBMECs transfected with empty vector (pRK5) or vectors encoding gD-HER2 WT, the truncated gD-
Proliferation was assessed by Incucyte during 5 days. Representative micrographs are shown (A).
Representative quantification of the proliferation (B) is shown where data are mean ± sem (n=8-12). Two-way
ANOVA followed byBonferroni’s multiple comparison test, *** P<0.001, **** P<0.0001. Scale bars are 100 µM.
(§7) vehicle, 5-10 µM Ebselen oxide or 5 µM AG1478. Proliferation was assessed by MTT assay during 3 days.
(§8) Data are mean ± sem (n=3). Two-way ANOVA followed by Bonferroni’s multiple comparison test, * P<0.05 **

NCI-N87 = assay: Incucyte proliferation, single agents and combinations, NCI-N87; type: cell-based; conditions: Homo sapiens, NCI-N87, 96 h; read-out: Reduction/inhibition of cell proliferation
Procedure: (A–C) Proliferation curves of HER2‐positive (SKBR3, A; BT474, B; NCI‐N87, C) cancer cell lines treated or not with ebselen oxide (10 μM), lapatinib (10–1000 nM), or combination of these agents, as indicated. Proliferation was assessed overtime by Incucyte during 4 days. Data are mean ± SD (n = 8–12) of a representative experiment out of 4 (A), 3 (B), or 2 (C) independent experiments. […] Proliferation was assessed by Incucyte during 4 days. […] Scale bars are […].

[7] = biological target: T4, JMHER2/FERME interaction (biot-JMHER2 peptide and GST-FERME, N-terminal FERM domain of ezrin) (Homo sapiens, UniProt P04626); assay: AlphaScreen competition of HER2 juxtamembrane peptide / ezrin FERM domain interaction; type: binding; conditions: AlphaScreen, 20 h
T4 construct: purchased Proteogenix
Procedure: Biotinylated peptide derived from HER2 cytosolic juxtamembrane region (JMHER2, […] ) has been synthesized by Proteogenix (Schiltigheim, France). The binding reaction was described previously. Briefly, white 384‐well Optiplates (PerkinElmer, Whalham, MA, USA) were used to prepare GST‐FERME and biotinylated peptide in a binding buffer (PBS, pH 7.4, 5 mM MgCl2, and 0.02% CHAPS). GST‐FERME was incubated with biotinylated‐HER2 for 30 min at room temperature. AlphaScreen® Streptavidin Donor beads (20 μg·mL^−1) and Glutathione AlphaLISA® Acceptor Beads (20 μg·mL^−1) were added to the wells for overnight incubation in the dark and at room temperature. Light signal was detected with the EnVision® multilabel plate reader (PerkinElmer).
Ebselen came out as an interesting hit. Ebselen is a synthetic organoselenium compound with the anti‐inflammatory and antioxidant property that has been evaluated in clinical trials for ischemic stroke and acute hearing loss. However, in vivo, ebselen rapidly reacts with peroxynitrite to form ebselen oxide. […] In addition, using surface plasmon resonance (SPR), we confirmed that both compounds could directly bind to JMHER2 (Fig. 1E,F). […] The slight decrease in HER2 expression was not significant. To examine whether HER2 inhibition by ebselen oxide was dependent on JMHER2/FERME interaction, we transfected HBMEC cells with a previously described glycoprotein D‐tagged HER2 form mutated on the critical amino acids involved in ERM binding (gD‐HER2‐EBM*).

BT474 [8] = assay: MTT proliferation assay, BT474; type: cell-based, human; conditions: 10 μM
Procedure: as §2

[9] = biological target: T5, HER2 in heterodimers with HER3 (Homo sapiens, UniProt P04626); assay: Ligand-dependent HER2 activation in HBMECs upon HRG stimulation (western blot); type: cell-based; conditions: 10 μM, 100 ng/ml Heregulin-1β 5 min
T5 construct: in noncancer cells expressing normal levels of HER2; endogenous in cells; host or cells: HBMEC

[10] = tested on: HBMECs overexpressing V842I HER2; assay: Proliferation of HBMECs overexpressing V842I HER2 (Incucyte, MTT)
Procedure: Cell medium was removed and replaced with fresh culture medium. 3‐(4,5‐dimethylthiazol‐2‐yl)‐2,5‐diphenyltetrazolium bromide (MTT reagent) was added at a final concentration of 1.2 mM for 2–4 h at 37 °C. Produced formazan was solubilized with DMSO and measured by 540 nm absorbance reading.
as §4, §5, §6
Proliferation was assessed by Incucyte during 5 days.
Representative quantification of the proliferation (B) is shown where data are mean ± sem (n=8-12).
ANOVA followed byBonferroni’s multiple comparison test, *** P<0.001, **** P<0.0001.
as §7, §8

MDA-MB-231 [11] = assay: Soft agar anchorage-independent growth, MDA-MB-231; type: cell-based, human; conditions: 10 μM
Procedure: as §1, §2

T2 sequence (P04626 23-1255): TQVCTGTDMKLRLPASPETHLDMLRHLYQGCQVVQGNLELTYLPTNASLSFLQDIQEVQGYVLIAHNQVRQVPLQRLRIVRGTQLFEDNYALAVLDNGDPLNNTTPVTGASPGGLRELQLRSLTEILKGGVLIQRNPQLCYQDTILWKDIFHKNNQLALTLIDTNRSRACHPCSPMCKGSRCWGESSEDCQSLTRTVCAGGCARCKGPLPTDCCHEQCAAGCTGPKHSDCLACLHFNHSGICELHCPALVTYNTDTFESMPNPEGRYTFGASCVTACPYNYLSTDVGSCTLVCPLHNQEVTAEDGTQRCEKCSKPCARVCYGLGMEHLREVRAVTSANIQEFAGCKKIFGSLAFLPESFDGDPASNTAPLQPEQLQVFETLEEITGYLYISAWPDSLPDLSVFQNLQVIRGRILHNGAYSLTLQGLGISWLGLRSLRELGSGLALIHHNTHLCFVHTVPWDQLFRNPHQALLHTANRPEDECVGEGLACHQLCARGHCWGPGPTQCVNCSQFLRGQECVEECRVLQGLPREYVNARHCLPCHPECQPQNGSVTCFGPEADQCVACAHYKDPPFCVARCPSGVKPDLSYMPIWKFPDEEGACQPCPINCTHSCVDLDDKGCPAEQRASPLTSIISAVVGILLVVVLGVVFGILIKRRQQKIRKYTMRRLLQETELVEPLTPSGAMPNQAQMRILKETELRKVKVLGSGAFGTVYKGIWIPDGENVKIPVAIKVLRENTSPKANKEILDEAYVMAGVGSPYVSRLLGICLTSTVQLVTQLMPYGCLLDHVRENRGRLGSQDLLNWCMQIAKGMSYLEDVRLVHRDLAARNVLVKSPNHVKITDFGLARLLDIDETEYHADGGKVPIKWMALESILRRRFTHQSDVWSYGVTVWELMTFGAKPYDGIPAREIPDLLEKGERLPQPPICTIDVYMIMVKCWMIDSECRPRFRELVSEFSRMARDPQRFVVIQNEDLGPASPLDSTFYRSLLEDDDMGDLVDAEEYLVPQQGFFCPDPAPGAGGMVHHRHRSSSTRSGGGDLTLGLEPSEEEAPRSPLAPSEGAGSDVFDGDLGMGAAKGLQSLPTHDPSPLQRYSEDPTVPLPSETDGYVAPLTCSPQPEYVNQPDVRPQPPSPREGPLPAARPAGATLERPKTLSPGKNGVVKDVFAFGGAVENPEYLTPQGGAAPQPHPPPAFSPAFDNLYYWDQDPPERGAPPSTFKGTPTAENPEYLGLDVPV
T3 sequence (P04626 23-1255): as above
T1 sequence (P04626 23-1255): as above
T5 sequence (P04626 23-1255, one chain of several): as the sequence (P04626 23-1255) above

O=C1c2ccccc2[Se](=O)N1c1ccccc1 (stereo not shown) [Ebselen oxide, ebselen oxide]
Effect on HER2 activation [1]: no effect | Reduction in the size of micro-colonies (BT474 [2]): > 50% | Inhibition of HER2 activation (HER2 (pY1248) in SKBR3; SKBR3, 24 h): 66% | EC50 (HER2 (pY1248) in SKBR3; SKBR3, 24 h, read-out: EC50 (inhibition of HER2)): 23.9 µM | Inhibition of HER2 activation (HER2 (pY1248) in SKBR3; SKBR3, 48 h): 64% | Effect on HER2 activation, single agents and combination (HER2 (pY1248) in SKBR3; SKBR3, ebselen oxide 10 μM, lapatinib 10 nM): partially decreased | HER2 inhibition, % (HER2 (pY1248) in SKBR3; Table 1, HER2+ breast cancer cells (ebselen oxide value equals SKBR3 48 h)): 64.2% | EC50 (HER2 (pY1248) in SKBR3; Table 1, HER2+ breast cancer cells (ebselen oxide value equals SKBR3 48 h), read-out: EC50, μM (HER2 inhibition)): 26.9 µM | Inhibition of p95HER2 activation (p95HER2): strongly inhibited | Downstream activation of ERK induced by gD-HER2-EBM* overexpression (gD-HER2-EBM*): did not reduce | Phosphorylation of gD-HER2-EBM* (gD-HER2-EBM*): did not reduce | Reduction of proliferation rate (SKBR3 [3]): 35% | Effect on proliferation rate (MDA-MB-231 [4]): did not reduce | Reduction in the size of micro-colonies (SKBR3 [5]): more than 40% | Effect on HER2 activation (HER2 (pY1248) in NCI-N87; ebselen oxide 0–20 μM 24 h, AG1478 5 μM): strongly blocked | Effect on HER2 activation, single agents and combination (HER2 (pY1248) in NCI-N87; ebselen oxide 10 μM, lapatinib 10 nM): partially decreased | Inhibition of cell proliferation induced by overexpression of p95 HER2 [6]: almost totally inhibited | inhibition at 10 µM (NCI-N87): 45% | IC50 [7]: 0.634 µM | EC50 ([7]; read-out: EC50, μM (inhibition of HER2-FERME interaction)): 0.634 µM | Reduction of proliferation rate (BT474 [8]): 55% | Physiological activation of HER2 in heterodimers and downstream AKT and ERK activation upon HRG [9]: did not alter | Inhibition of cell proliferation induced by overexpression of V842I HER2 ([10]; 5 μM, Incucyte 5 days): almost totally inhibited | Inhibition of proliferation compared with AG1478 (5 μM) ([10]; MTT 3 days, V842I): similar | Effect on development of micro-colonies (MDA-MB-231 [11]): no impact
